Experiment [1] concerns synaptosomal uptake of norepinephrine. Briefly: Inhibition of synaptosomal norepinephrine (3H-NE) uptake. The format is biochemical. The conditions noted are these: synaptosomal uptake of 3H-NE, read-out: NE uptake, inhibitory concentration at which the rate of uptake was reduced to 50 percent (IC50).
For experiment [2], the target named is muscarinic receptor. Briefly: Inhibition of 3H-QNB binding (QNB receptor binding assay). The conditions noted are these: for Ki / IC50: inhibition of 3H-QNB binding; for anticholinergic property reflected by inhibition of binding of the muscarinic receptor ligand 3H-QNB (in words): 3H-quinuclidinyl benzilate.
In experiment [3] the test system is synaptosomal uptake of serotonin (5-HT). Briefly: Inhibition of synaptosomal serotonin (14C-5-HT) uptake. The format is biochemical. The note with it: synaptosomal uptake of 14C-5-HT, read-out: 5-HT uptake, inhibitory concentration at which the rate of uptake was reduced to 50 percent (IC50).

What is called Ki is a dissociation constant, usually derived from enzyme kinetics or from competition with a known ligand. Low readings indicate a stronger hold on the target, high ones a looser hold on the target.

For `CN(C)CCC=C1c2ccccc2CCc2ccccc21` [Amitriptyline, reference compound], the IC50 in experiment [1] turned out to be […].
Take `CNCCCN1c2ccccc2CCc2ccccc21` [DMI, reference compound]: the IC50 in experiment [1] is 150 nM. In addition, the Ki in experiment [2] stood at […].
For `CN(C)CC(Oc1ccc(Cl)cc1)C1(O)CCCCC1` (centres unmarked) [Example 1, 1-[1-(4-Chlorophenoxy)-2-(dimethylamino)ethyl]cyclohexanol], the IC50 in experiment [1] is 220 nM; in experiment [2], over 10 µM; in experiment [3], 170 nM. Also, the “anticholinergic property reflected by inhibition of binding of the muscarinic receptor ligand 3H-QNB (in words)” value in experiment [2] was “essentially inactive”.
With `CN(C)CC(Oc1ccc(Cl)cc1Cl)C1(O)CCCCC1` (centres unmarked) [Example 2, 1-[1-(2,4-Dichlorophenoxy)-2-(dimethylamino)ethyl]cyclohexanol], the IC50 in experiment [1] was 3140 nM; in experiment [2] it was over 10 µM; in experiment [3], 530 nM. Besides, in experiment [2], the “anticholinergic property reflected by inhibition of binding of the muscarinic receptor ligand 3H-QNB (in words)” value is “essentially inactive”.
As to `CN(C)CC(Oc1ccc(Cl)cc1Cl)C1(O)CCCC1` (centres unmarked) [Example 3, 8-[1-(2,4-Dichlorophenoxy)-2-(dimethylamino)ethyl]cyclopentanol], the IC50 came out at 2250 nM in experiment [1] and 440 nM in experiment [3].
On the same counts, the results for `COc1ccc(OC(CN(C)C)C2(O)CCCCC2)cc1` (centres unmarked) [Example 4, 1-[2-(Dimethylamino)-1-(4-methoxyphenoxy)ethyl]cyclohexanol] are 920 nM and 180 nM.
On the same counts, the results for `COc1ccc(OC(CN(C)C)C2(O)CCCCCC2)cc1` (centres unmarked) [Example 5, 1-[2-(Dimethylamino)-1-(4-methoxyphenoxy)ethyl]cycloheptanol] are 810 nM and 170 nM.
On the same counts, the results for `COc1ccc(OC(CN(C)C)C2(O)CCCC2)cc1` (centres unmarked) [Example 6, 1-[2-(dimethylamino)-1-(4-methoxyphenoxy)ethyl]cyclopentanol] are 3140 nM and 640 nM.
Take `CN(C)CC(Oc1cccc(C(F)(F)F)c1)C1(O)CCCCC1` (centres unmarked) [Example 7, 1-[2-(dimethylamino)-1-(3-trifluoromethylphenoxy)ethyl]cyclohexanol]: the IC50 in experiment [1] stood at 2350 nM; in experiment [3], 1200 nM.
On the same counts, the results for `CN(C)CC(Oc1ccc(C(F)(F)F)cc1)C1(O)CCCCC1` (centres unmarked) [Example 8, 1-[2-Dimethylamino-1-(4-trifluoromethylphenoxy)ethyl]cyclohexanol] are 2500 nM and 340 nM.
On the same counts, the results for `CN(C)CC(Oc1ccc(C(F)(F)F)cc1)C1(O)CCCCCC1` (centres unmarked) [Example 9, 1-[2-Dimethylamino-1-(4-trifluoromethylphenoxy)ethyl]cycloheptanol] are 3780 nM and 490 nM.
On the same counts, the results for `COc1cccc(OC(CN(C)C)C2(O)CCCCC2)c1` (centres unmarked) [Example 10, 1-[2-(Dimethylamino)-1-(3-methoxyphenoxy)ethyl]cyclohexanol] are 1160 nM and 700 nM.
For `COc1cccc(OC(CN(C)C)C2(O)CCCCCC2)c1` (centres unmarked) [Example 11, 1-[2-(Dimethylamino)-1-(3-methoxyphenoxy)ethyl]cycloheptanol], the values for the IC50 in experiment [1] and in experiment [3] were 1160 nM and 900 nM, respectively.
Regarding `COc1cccc(OC(CN(C)C)C2(O)CCCC2)c1` (centres unmarked) [Example 12, 1-[2-(Dimethylamino)-1-(3-methoxyphenoxy)ethyl]cyclopentanol], the IC50 amounted to 1580 nM in experiment [1] and 970 nM in experiment [3].
As for `CNCCC(Oc1ccc(C(F)(F)F)cc1)c1ccccc1` (centres unmarked) [Fluoxetine, reference compound], the IC50 in experiment [1] came out at 4500 nM.
For `CN(C)CCCN1c2ccccc2CCc2ccccc21` [Imipramine, reference compound], the IC50 in experiment [1] was determined as 260 nM; in experiment [3], 120 nM. In experiment [2], this compound had a Ki of 37 nM.

Source of the values: patent publication US4609758A, “Phenoxyethylamine derivatives” (American Home Products Corporation, priority 1985, dated 1986).
